Experimental data as given in patent publication US9303042B2, “Triazolothienopyrimidine compound inhibitors of urea transporters and methods of using inhibitors” (The Regents of the University of California, priority 2012, dated 2016).

Columns and labels:
[1] = In vitro metabolic stability in hepatic microsomes; assay type: in vitro ADME, rat
Procedure: Compounds, each at 5 μM, were incubated for specified times at 37° C. with rat liver microsomes (1 mg protein/ml; Sigma-Aldrich, St. Louis, Mo.) in potassium phosphate buffer (100 mM) containing 1 mM NADPH. The mixture was then chilled on ice, and 0.5 ml of ice-cold ethyl acetate was added.

AQP1 = target: T1, AQP1 (Mus musculus, UniProt Q02013); assay: Erythrocyte osmotic water permeability by stopped-flow light scattering, wild type erythrocytes; assay type: cell-based; settings: 100 mM sucrose gradient, 10 °C
T1 construct: endogenous in cells; host or cells: erythrocytes of wild-type CD1 mice
T1 sequence (Q02013 1-269): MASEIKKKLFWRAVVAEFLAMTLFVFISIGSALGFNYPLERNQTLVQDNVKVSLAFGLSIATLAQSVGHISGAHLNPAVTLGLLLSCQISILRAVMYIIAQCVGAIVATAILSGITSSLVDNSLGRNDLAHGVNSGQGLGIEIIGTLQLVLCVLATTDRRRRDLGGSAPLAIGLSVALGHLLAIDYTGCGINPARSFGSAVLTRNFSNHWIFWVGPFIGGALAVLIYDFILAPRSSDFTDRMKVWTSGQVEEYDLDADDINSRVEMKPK
Procedure: (§1) Erythrocyte urea and water permeabilities were measured by stopped-flow light scattering using a Hi-Tech Sf-51 instrument (Wiltshire, UK). […] Urea permeability and percentage inhibition were computed as described (see, e.g., Levin et al., FASEB J. supra, 2007)). In some experiments, different urea gradients (25-200 mM) were used, or inhibitor was added only to the erythrocyte-containing or urea-containing solutions. In some experiments an outwardly directed urea gradient was used in which erythrocytes were incubated for 30 min with PBS containing specified urea and mixed in the stopped-flow apparatus with PBS. In reversibility experiments, erythrocytes were incubated for 30 min with inhibitor, washed three times to remove inhibitor, and urea transport assayed. Osmotic water permeability was measured using a 100 mM gradient of sucrose.
(§2) Erythrocyte osmotic water permeability was measured by stopped-flow light scattering. […] Life Sci. 52:474-78 (2009)).

AQP1-null erythrocytes = assay: Erythrocyte osmotic water permeability by stopped-flow light scattering, AQP1-null erythrocytes; assay type: cell-based, mouse; settings: 100 mM sucrose gradient, 10 °C
Procedure: as §1, §2

TMEM16A = target: T2, TMEM16A (Homo sapiens, UniProt Q5XXA6); assay: TMEM16A calcium-activated chloride conductance by short-circuit current; assay type: cell-based; settings: 10 μM, ATP-activated
T2 construct: expressed in transfected cells
T2 sequence (Q5XXA6 1-986): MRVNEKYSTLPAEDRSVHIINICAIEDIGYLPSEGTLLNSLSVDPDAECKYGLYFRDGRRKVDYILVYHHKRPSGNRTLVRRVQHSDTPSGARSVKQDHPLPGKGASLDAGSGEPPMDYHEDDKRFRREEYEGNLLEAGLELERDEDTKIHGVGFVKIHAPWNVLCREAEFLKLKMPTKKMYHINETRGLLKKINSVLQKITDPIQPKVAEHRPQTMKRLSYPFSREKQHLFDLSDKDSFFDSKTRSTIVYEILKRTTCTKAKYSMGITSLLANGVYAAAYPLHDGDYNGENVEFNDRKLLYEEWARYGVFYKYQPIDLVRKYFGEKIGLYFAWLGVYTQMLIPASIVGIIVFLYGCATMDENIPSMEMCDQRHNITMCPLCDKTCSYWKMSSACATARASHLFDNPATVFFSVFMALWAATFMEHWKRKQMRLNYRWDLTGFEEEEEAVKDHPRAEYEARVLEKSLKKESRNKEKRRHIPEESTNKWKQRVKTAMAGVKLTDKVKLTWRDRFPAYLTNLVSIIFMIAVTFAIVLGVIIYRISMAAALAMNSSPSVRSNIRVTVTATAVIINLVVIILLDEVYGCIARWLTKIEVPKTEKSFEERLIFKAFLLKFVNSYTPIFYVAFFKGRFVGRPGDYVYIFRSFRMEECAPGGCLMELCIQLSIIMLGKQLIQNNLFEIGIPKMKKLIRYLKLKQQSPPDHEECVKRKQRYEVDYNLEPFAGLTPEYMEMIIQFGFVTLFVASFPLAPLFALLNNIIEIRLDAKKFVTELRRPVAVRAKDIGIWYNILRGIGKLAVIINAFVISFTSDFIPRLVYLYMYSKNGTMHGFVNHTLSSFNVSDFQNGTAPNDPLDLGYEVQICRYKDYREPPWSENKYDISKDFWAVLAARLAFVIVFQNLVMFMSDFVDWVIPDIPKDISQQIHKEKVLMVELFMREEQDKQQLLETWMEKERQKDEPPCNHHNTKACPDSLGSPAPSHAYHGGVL
Procedure: CFTR chloride conductance was measured by short-circuit current analysis in Fisher rat thyroid (FRT) cells stably expressing CFTR, as described (see, e.g., Ma et al., J. Biol. Chem. (2002), supra). CFTR chloride conductance was stimulated by forskolin and inhibited by a thiazolidinone compound that inhibits CFTR (CFTRinh-172). TMEM16A calcium-activated chloride conductance was measured by short-circuit current analysis in FRT cells stably expressing TMEM16A, as described (see, e.g., Namkung et al., J. Biol. Chem. 286:2365-2374, 2011. TMEM16A was stimulated by ATP and inhibited by tannic acid (100 μM). Cytotoxicity was measured in MDCK using the MTT assay [3(4,5-dimethyl-thiazol-2-yl)-2,5-diphenyl tetrazolium bromide] by standard procedures.

mice = assay: Urinary concentration in mice; assay type: in vivo, mouse; settings: 1 week high-protein diet, 300 μg

Question: For `CCc1ccc(S(=O)(=O)c2nnn3c2nc(NCc2cccs2)c2sccc23)cc1` [UTBinh-14, [3-(4-Ethyl-benzenesulfonyl)-thieno[2,3-e][1,2,3]triazolo[1,5-a]pyrimidin-5-yl]-thiophen-2-ylmethylamine], which “t1/2 for disappearance in hepatic microsomes” value ([1]; hepatic microsomes, NADPH) is on record?
Answer: approximately 2.8 min

Question: And the “% Remaining” value ([1]; parent molecule after 30 min incubation with rat liver microsomes)?
Answer: <5%

Question: What about the “inhibition of water transport in erythrocytes from wild type mice” value (AQP1) of the same compound?
Answer: no significant inhibition

Question: And the “water transport in AQP1-null erythrocytes” value (AQP1-null erythrocytes)?
Answer: inhibited water transport significantly

Question: And the “inhibition of TMEM16A chloride conductance” value (TMEM16A)?
Answer: no significant inhibition

Question: What about the “effect on dDAVP-stimulated urinary concentration, high-protein diet” value (mice) of the same compound?
Answer: robust effect
